The record followed here is ChEMBL document CHEMBL4190400, “Identification of Potent Ebola Virus Entry Inhibitors with Suitable Properties for in Vivo Studies” (J Med Chem, 2018).

Converted amounts (≈) assume the structure as drawn.

Series [1] deals with Ebolavirus. The series is described as follows: Antiviral activity against Ebola virus - Mayinga, Zaire, 1976 infected in human HeLa cells assessed as inhibition of viral infection pretreated for 2 hrs before viral infection and measured after 48 hrs by EboV GP immunostaining based method. In kind it is functional, cell-based. The following applies: Orthoebolavirus.
Series [2] concerns Ebolavirus. The series is described as follows: Antiviral activity against recombinant VSV pseudotyped Ebolavirus expressing M-GFP infected in African green monkey Vero E6 cells assessed as inhibition of viral infection pre-incubated for 2 hrs before infection and measured after 8 to 12 hrs in presence of 50% NHS by fluorescence microscopic method. Type of series: functional, Vero C1008.

Series [3] deals with Ebolavirus. The series is described as follows: Antiviral activity against Ebolavirus isolate Makona infected in human HeLa cells assessed as inhibition of viral infection pretreated for 2 hrs before viral infection and measured after 48 hrs by EboV GP immunostaining based method. In kind it is functional, cell-based. The settings on record: Orthoebolavirus.
Series [4] concerns Ebolavirus. The series is described as follows: Antiviral activity against Ebolavirus isolate Kikwit infected in human HeLa cells assessed as inhibition of viral infection pretreated for 2 hrs before viral infection and measured after 48 hrs by EboV GP immunostaining based method. Type of series: functional, cell-based. The following applies: Orthoebolavirus.
A short description of series [5]: Stability of the compound in mouse plasma at 10 uM assessed as compound remaining after 4 hrs by LC-MS/MS analysis. In kind it is ADME, cell-free. The settings on record: read-out: Stability.
A short description of series [6]: Half life in mouse liver microsomes at 1 uM after 60 mins in presence of NADPH and ritonavir by LC-MS/MS analysis. Type of series: ADME, microsome. The settings on record: with ritonavir (concentration not stated). On the technique in general: Liver microsomes are a subcellular fraction often used to study metabolism.
Series [7] is described as follows: Concentration in mouse plasma at 25 mg/kg, po administered via gavage after 12 hrs. Type of series: ADME, organism-based.
Series [8] in a line: Clearance in mouse at 25 mg/kg, po administered via gavage. The settings on record: in vivo. In kind it is ADME, organism-based.
Series [9] can be described thus: Cmax in mouse at 25 mg/kg, po administered via gavage cotreated with 20 mg/kg ritonavir. Type of series: ADME, organism-based. Further details: dose 25 mg/kg, route oral. The following applies: in vivo.
Series [10] is described as follows: Concentration in mouse plasma at 25 mg/kg, po administered via gavage cotreated with 20 mg/kg ritonavir. Type of series: ADME, organism-based. The following applies: in vivo.
Series [11] is described as follows: AUClast in mouse at 25 mg/kg, po administered via gavage cotreated with 20 mg/kg ritonavir. Type of series: ADME, organism-based. On the set-up: dose 25 mg/kg, route oral, time 0 - last. The following applies: in vivo.
Series [12] is described as follows: Clearance in mouse at 25 mg/kg, po administered via gavage cotreated with 20 mg/kg ritonavir. The following applies: in vivo. Type of series: ADME, organism-based.
Series [13] relates to Ebolavirus. The series is described as follows: Antiviral activity against VSV pseudotyped Ebolavirus expressing M-GFP infected in African green monkey Vero E6 cells assessed as inhibition of viral infection pre-incubated for 2 hrs before infection and measured after 8 to 12 hrs by fluorescence microscopic method. In kind it is functional, Vero C1008.
The next series is described as follows: in vivo. The following applies: mouse, po, 25 mg/kg.
Series [14] is described as follows: Half life in mouse liver microsomes at 1 uM after 60 mins in presence of NADPH by LC-MS/MS analysis. Type of series: ADME, microsome.
The nature of series [15]: Half life in human liver microsomes at 1 uM after 60 mins in presence of NADPH by LC-MS/MS analysis. In kind it is ADME, microsome.
A short description of series [16]: Tmax in mouse at 50 mg/kg, po administered via gavage cotreated with 50 mg/kg ritonavir. In kind it is ADME, organism-based. The following applies: in vivo.
The nature of series [17]: Cmax in mouse at 50 mg/kg, po administered via gavage cotreated with 50 mg/kg ritonavir. Type of series: ADME, organism-based. On the set-up: dose 50 mg/kg, route oral. The settings on record: in vivo.
Series [18] is described as follows: Concentration in mouse plasma at 50 mg/kg, po administered via gavage cotreated with 50 mg/kg ritonavir. In kind it is ADME, organism-based. The following applies: in vivo.
A short description of series [19]: AUClast in mouse at 50 mg/kg, po administered via gavage cotreated with 50 mg/kg ritonavir. Type of series: ADME, organism-based. On the set-up: dose 50 mg/kg, route oral, time 0 - last. The settings on record: in vivo.
Series [20] can be described thus: Half life in mouse at 50 mg/kg, po administered via gavage cotreated with 50 mg/kg ritonavir. Type of series: ADME, organism-based. The settings on record: in vivo.
Series [21] in a line: Clearance in mouse at 50 mg/kg, po administered via gavage cotreated with 50 mg/kg ritonavir. The settings on record: in vivo. Type of series: ADME, organism-based.
The nature of the next series: physchem. The settings on record: phosphate buffered saline, pH 7.4.
The next series is described as follows: in vitro. The settings on record: mouse, plasma.
The subject of series [22] is Ebolavirus. Briefly: Antiviral activity against VSV pseudotyped Ebolavirus expressing M-GFP infected in African green monkey Vero E6 cells assessed as inhibition of viral infection pre-incubated for 2 hrs before infection and measured after 8 to 12 hrs in presence of 10% FBS and 50% NHS by fluorescence microscopic method. Type of series: functional. The settings on record: Orthoebolavirus, Vero C1008.

A word on the EC50: it is the midpoint of the concentration-response curve. The IC50 is the midpoint of a concentration-inhibition curve. Regarding `CS(=O)(=O)c1ccc(CNc2ccc(Cl)cc2CN2CCN(C(=O)CNC(=O)CC3CCC(F)(F)CC3)CC2)cc1`, the EC50 stood at 12 nM with Ebolavirus [1], 52 nM in the series with Ebolavirus [3] and 33 nM in the series with Ebolavirus [4]. In addition, the IC50 in the series with Ebolavirus [2] (Orthoebolavirus, Vero C1008) came out at 28 nM.

Broadly, the half-life is the time needed for the level to fall by half in the phase considered. As usually defined, the CL/F is the apparent clearance, not corrected for the fraction that reaches the circulation. For orientation: Cmax means the maximum level reached in the sampled fluid or tissue. By AUC(0-t) is commonly meant the area under the concentration-time curve up to a stated or last time point. Take `[2H]C([2H])(c1cc(Cl)ccc1N)N1CCN(C(=O)CNC(=O)CC2CCC(F)(F)CC2)CC1`: the remaining at 4 h, 10 µM in series [5] was determined as 86%. Moreover, the half-life at 1 µM in series [6] was more than 2 h. The concentration at 12 h in series [7] came to 0.2 µM. The CL/F in series [8] came out at 49 mL/min/kg; in series [12], 12.3 mL/min/kg. For the same compound, the Cmax in series [9] was 12 µM. Moreover, the concentration in series [10] stood at 1.7 µM. For the same compound, the AUC(0-t) in [11] amounted to 76.8 µM·h. The IC50 in the series on Ebolavirus [13] (Orthoebolavirus, Vero C1008) was found to be 347 nM; with Ebolavirus [2] (Orthoebolavirus, Vero C1008), 1200 nM. This compound showed a half-life in the series “in vivo” of 2.3 h.

Turning to `CS(=O)(=O)c1ccc(CNc2ccc(Cl)cc2CN2CCN(C(=O)CNC(=O)C3CC34CCC(F)(F)CC4)CC2)cc1` (racemic), the EC50 with Ebolavirus [1] stood at 9 nM; in the series with Ebolavirus [3], 17 nM; in the series with Ebolavirus [4], 35 nM. In addition, the IC50 in the series with Ebolavirus [2] (Orthoebolavirus, Vero C1008) was 40 nM.

For the compound `CS(=O)(=O)c1ccc(COc2ccc(Cl)cc2CN2CCN(C(=O)CNC(=O)C3CC34CCC(F)(F)CC4)CC2)cc1` (racemic), the figures for the EC50 in the series on Ebolavirus [1], in the series with Ebolavirus [3] and in the series with Ebolavirus [4] were 210 nM, 140 nM and 420 nM, respectively. Also, the IC50 in the series with Ebolavirus [2] (Orthoebolavirus, Vero C1008) turned out to be 35 nM.

By Tmax is commonly meant the time at which the peak concentration occurs. A word on the solubility (kinetic): it is solubility judged after dilution from a stock solution rather than from solid. The term fraction unbound denotes free concentration divided by total concentration. Turning to `[2H]C([2H])(c1cc(Cl)ccc1N)N1CCN(C(=O)CNC(=O)C2CC23CCC(F)(F)CC3)CC1` (single isomer, unassigned; (-)), the remaining at 4 h, 10 µM in series [5] came out at 88%. Besides, the half-life at 1 µM was 3 min in series [14], 1.52 h in [6] and 0.267 h in series [15]. Also, the Tmax in series [16] turned out to be 1.7 h. Besides, in series [17], the Cmax worked out at 19.5 µM. Moreover, the concentration in series [18] was 2 µM. Further, in series [19], the AUC(0-t) came to 121 µM·h. In [20], the half-life was 3.2 h. For the same compound, the CL/F in [21] came to 15.5 mL/min/kg. In addition, the IC50 with Ebolavirus [13] (vero c1008) came to 51 nM; in the series on Ebolavirus [2] (Orthoebolavirus, Vero C1008) it was 163 nM. In “physchem”, this compound came in with a kinetic solubility of 78 µM (≈ 35.6 µg/mL). In the series “in vitro”, this compound gave a fraction unbound at 6 h of 0.121.

Turning to `[2H]C([2H])(c1cc(Cl)ccc1NCc1ccc(S(C)(=O)=O)cc1)N1CCN(C(=O)CNC(=O)C2CC23CCC(F)(F)CC3)CC1` (single isomer, unassigned; (-)), the remaining at 4 h, 10 µM in series [5] turned out to be 72%. For the same compound, the half-life at 1 µM turned out to be 2 min in [14], 1.45 h in [6] and 0.0167 h in series [15]. Further, the Tmax in series [16] was determined as 7.3 h. In series [17], the Cmax turned out to be 7.4 µM. In series [18], the concentration was 5.7 µM. The AUC(0-t) in series [19] amounted to 108 µM·h. In addition, the half-life in [20] was 1.7 h. In addition, the CL/F in series [21] turned out to be 12.5 mL/min/kg. Further, the IC50 in the series with Ebolavirus [22] amounted to 109 nM; in the series on Ebolavirus [2] (Orthoebolavirus, Vero C1008) it was 21 nM. The compound further came in with a kinetic solubility in “physchem” of 4 µM (≈ 2.5 µg/mL). Moreover, the fraction unbound at 6 h in the series “in vitro” is 0.002.

Take `CS(=O)(=O)c1ccc(COc2ccc(Cl)cc2CN2CCN(C(=O)CNC(=O)C3CC34CCC(F)(F)CC4)CC2)cc1` (stereo in doubt; 3-22): the remaining at 4 h, 10 µM in series [5] is 69%. For the same compound, in series [6], the half-life at 1 µM was more than 2 h. The Tmax in series [16] was determined as 4 h. Besides, in series [17], the Cmax was determined as 10.4 µM. For the same compound, the concentration in series [18] is 4.7 µM. Also, in series [19], the AUC(0-t) was 116 µM·h. Moreover, the half-life in series [20] was 3.2 h. Moreover, in series [21], the CL/F is 11.9 mL/min/kg. Also, the IC50 with Ebolavirus [22] came to 93 nM; in the series on Ebolavirus [2] (vero c1008), 19 nM. In addition, the solubility (kinetic) in “physchem” was 10 µM (≈ 6.24 µg/mL). In addition, in the series “in vitro”, the fraction unbound at 6 h was 0.024.
